Reference: US8937090B2, “Parakeratosis inhibitor, pore-shrinking agent and external composition for skin” (Shiseido Company, Ltd., priority 2005, dated 2015)

How the values were obtained:
[1] = tested on: cheeks of healthy human males; experiment: Human pore-shrinking effect (replica of cheek pores, three-dimensional laser scanning microscope); format: in vivo; conditions: for pore-shrinking effect: in words, summary of Table 2; for Replica assessment value (average of n = 5): twice a day for one month, pore size rating (1-13) after minus before application, control 0.3
Method: An experiment was conducted whereby a sample was applied twice a day for one month to the cheeks of healthy human males in groups of 5 men each. Aqueous solutions (containing 15 mass % of ethanol) of 3 mass % of the β-alanine derivative or a salt thereof were prepared mainly as the evaluation sample. The pH was regulated by hydrochloric acid or sodium hydroxide so as to be 7.0 to 7.5. When the sample solubility was low, the solution was prepared accordingly. The control was an aqueous 15% ethanol solution. The sample aqueous solution and the control aqueous solution were applied to one half of the face at a time.
A replica was collected before and after continuous application, and changes in the shape of the pores at the same site were observed using a three-dimensional laser scanning microscope. The size of the pores was visually evaluated in the 13 steps of 1 through 13 (with the pores becoming larger as the numbers became larger), the difference in the ratings before and after application (after application—before application) was calculated, and the efficacy of each sample was studied using this difference as the replica assessment value.

hairless mouse (HR-1) = experiment: Parakeratosis-inhibiting effect test (oleic acid applied to back of hairless mouse; visual rough skin evaluation and parakeratosis value); format: in vivo; conditions: for parakeratosis-inhibiting effect: in words, summary of Table 1; for Visual evaluation (average of four animals): rough skin score, control = 2.0, no skin roughness = 0.0, 3 days application after 10 mass % oleic acid; for Parakeratosis value (average of four animals): scale 1.0 to 3.0, higher = parakeratosis advanced, control 2.0
Method: Aqueous solutions (containing 30 mass % of ethanol) of 3 mass % of a β-alanine derivative or salt thereof were prepared mainly as the evaluation sample. The pH was regulated by hydrochloric acid or sodium hydroxide so as to be 7.0 to 7.5. When sample solubility was low, the solution was prepared accordingly.
100 μL of 10 mass % oleic acid solution (solvent: ethanol) were applied to the back of a hairless mouse (HR-1; Hoshino Laboratory Animals). Then the sample solution (β-alanine derivative, and the like) was applied 100 μL at a time. This procedure was continued for three days. […] At the same time, the stratum corneum at the back of the hairless mouse was peeled off with tape, the nuclei were stained by hematoxylin, and the degree of parakeratosis was observed and evaluated by a parakeratosis value within a range of 1.0 to 3.0 (in 0.25 increments).

panel of 20 women = experiment: Sensory irritation tests; format: in vivo, human; conditions: for sensory irritation: in words, summary of Table 4; for Evaluation (sensory irritation, class of average rating): 1 mL to cheek, rated for ten minutes
Method: 1 mL of a control aqueous solution and the sample aqueous solution prepared in Example 1 were applied using a cotton swab to the left or right cheek, respectively, of each member of a panel of 20 women, and the irritating sensation was evaluated every 30 seconds for ten minutes beginning immediately after application, whereby a final evaluation was reported. The evaluation of the irritating sensation was made based on the following four levels of rating criteria, and the average rating was calculated, whereby the average was classified by the following criteria.
3: Continuation is not possible because of extremely strong irritation, such as tingling sensation, burning sensation, stinging sensation, itching, and the like.
2: Intolerable because of strong irritation, such as tingling sensation, burning sensation, stinging sensation, itching, and the like.
1: Tolerable, but with slight irritation such as tingling sensation, burning sensation, stinging sensation, itching, and the like.
0: Not particularly irritating.
(Evaluation Criteria) • A: average rating of less than 0.2 • B: average rating of from 0.2 to less than 1.0 • C: average rating of from 1.0 to less than 2.0 • D: average rating of 2.0 or greater

hairless mice (HR-1) = experiment: Inhibiting effect on rough skin induced by oleic acid application (transepidermal water loss); format: in vivo, mouse; parameters: ΔTEWL value: unit not given here; conditions: for rough skin preventing/ameliorating effect (ΔTEWL value versus control aqueous solution): in words, summary of Table 3; for ΔTEWL value: average of four mice, 3 days after 10 mass % oleic acid, control 12.0, increase = rough skin worse
Method: In order to investigate the inhibiting effect of β-alanine derivatives and salts thereof on rough skin induced by oleic acid application, the transepidermal water loss (TEWL value) before and after application was measured, the difference was compared with the control (control aqueous solution), and the effect was determined. […] The TEWL was determined using the TM210 TEWA Meter (Courage+Khazaka Electronic GmBH).
100 μL of 10 mass % oleic acid (solvent: ethanol) was applied to the back of hairless mice (HR-1, four mice per group). Then a sample solution (β-alanine derivatives) was applied 100 μL at a time. This procedure was continued for three days. On the following day, the TEWL value of the back was determined and the values of the four animals were averaged.

| Compound | pore-shrinking effect [1] | Replica assessment value (average of n = 5) ([1]; sample 3 mass %) | parakeratosis-inhibiting effect (hairless mouse (HR-1)) | Visual evaluation (average of four animals) (hairless mouse (HR-1); sample 3 mass %) | Parakeratosis value (average of four animals) (hairless mouse (HR-1); sample 3 mass %) | sensory irritation (panel of 20 women) | rough skin preventing/ameliorating effect (ΔTEWL value versus control aqueous solution) (hairless mice (HR-1)) | ΔTEWL value (hairless mice (HR-1); sample 3 mass %) | Evaluation (sensory irritation, class of average rating) (panel of 20 women; sample 3 mass %) | Replica assessment value (average of n = 5) ([1]; sample 1.0 mass %) | Visual evaluation (average of four animals) (hairless mouse (HR-1); sample 1 mass %) | Parakeratosis value (average of four animals) (hairless mouse (HR-1); sample 1 mass %) | Evaluation (sensory irritation, class of average rating) (panel of 20 women; sample 1 mass %) | ΔTEWL value (hairless mice (HR-1); sample 1 mass %) |
| --- | --- | --- | --- | --- | --- | --- | --- | --- | --- | --- | --- | --- | --- | --- |
| O=C(O)CCNC1CCCCC1 [N-cyclohexyl-β-alanine] | effect was seen | −0.9 | reduced the parakeratosis value | 1.1 | 1.1 | no problem of sensory irritation | effect was seen | 9.0 |  |  |  |  |  |  |
| O=C(O)CCNC(=O)C1CCCCC1 [N-cyclohexylcarbonyl-β-alanine] | effect was seen | −0.6 | reduced the parakeratosis value | 1.1 | 1.2 | no problem of sensory irritation | effect was seen | 8.0 | A (average rating of less than 0.2) |  |  |  |  |  |
| O=C(O)CCNCC1CCCCC1 [N-cyclohexylmethyl-β-alanine] | effect was seen | −0.8 | reduced the parakeratosis value | 1.1 | 1.1 | no problem of sensory irritation | effect was seen | 8.9 | A (average rating of less than 0.2) |  |  |  |  |  |
| CNCCC(=O)O [N-methyl-β-alanine] | effect was seen | −1.0 | reduced the parakeratosis value | 1.1 | 1.2 | no problem of sensory irritation | effect was seen | 6.8 | A (average rating of less than 0.2) |  |  |  |  |  |
| O=C(O)CCNC(=O)c1cccnc1 [N-nicotinoyl-β-alanine] | effect was seen |  | reduced the parakeratosis value |  |  | no problem of sensory irritation | effect was seen |  |  | −0.8 | 1.1 | 1.2 | A (average rating of less than 0.2) | 6.0 |
| Cl.NCCC(N)=O [β-alanine amide hydrochloride salt] | effect was seen | −0.3 | reduced the parakeratosis value | 1.3 | 1.3 | no problem of sensory irritation | effect was seen | 8.9 | A (average rating of less than 0.2) |  |  |  |  |  |
